Data as given in US10125138B2, “Triazolotriazinone derivatives having activity a s herbicides” (Syngenta Participations AG, priority 2015, dated 2018).

Experiments:
Type in all cases: in vivo
Settings in all cases: 1000 g/h, evaluated after 13 days, five point scale
[1] = system: Echinochloa crus-galli (ECHCG); experiment: Post-emergence glasshouse herbicide test, Echinochloa crus-galli
Procedure: (§1) Seeds of a variety of test species are sown in standard soil in pots (Lolium perenne (LOLPE), Solanum nigrum (SOLNI), Amaranthus retoflexus (AMARE), Setaria faberi (SETFA), Echinochloa crus-galli (ECHCG), Ipomoea hederacea (IPOHE)). After cultivation for one day (pre-emergence) or after 8 days cultivation (post-emergence) under controlled conditions in a glasshouse (at 24/16° C., day/night; 14 hours light; 65% humidity), the plants are sprayed with an aqueous spray solution derived from the formulation of the technical active ingredient in acetone/water (50:50) solution containing 0.5% Tween 20 (polyoxyethelyene sorbitan monolaurate, CAS RN 9005-64-5). […] The test plants are then grown in a glasshouse under controlled conditions in a glasshouse (at 24/16° C., day/night; 14 hours light; 65% humidity) and watered twice daily. After 13 days for pre and post-emergence, the test is evaluated for the percentage damage caused to the plant. The biological activities are shown in the following table on a five point scale (5=80-100%; 4=60-79%; 3=40-59%; 2=20-39%; 1=0-19%).

Setaria faberi (SETFA) [2] = experiment: Post-emergence glasshouse herbicide test, Setaria faberi
Procedure: as §1

Lolium perenne (LOLPE) [3] = experiment: Pre-emergence glasshouse herbicide test, Lolium perenne
Procedure: as §1

[4] = system: Amaranthus retoflexus (AMARE); experiment: Pre-emergence glasshouse herbicide test, Amaranthus retoflexus
Procedure: as §1

Solanum nigrum (SOLNI) [5] = experiment: Post-emergence glasshouse herbicide test, Solanum nigrum
Procedure: (§2) Seeds of a variety of test species are sown in standard soil in pots (Lolium perenne (LOLPE), Solanum nigrum (SOLNI), Amaranthus retoflexus (AMARE), Setaria faberi (SETFA), Echinochloa crus-galli (ECHCG), Ipomoea hederacea (IPOHE)). After cultivation for one day (pre-emergence) or after 8 days cultivation (post-emergence) under controlled conditions in a glasshouse (at 24/16° C., day/night; 14 hours light; 65% humidity), the plants are sprayed with an aqueous spray solution derived from the formulation of the technical active ingredient in acetone/water (50:50) solution containing 0.5% Tween 20 (polyoxyethelyene sorbitan monolaurate, CAS RN 9005-64-5). Compounds are applied at 1000 g/h. The test plants are then grown in a glasshouse under controlled conditions in a glasshouse (at 24/16° C., day/night; 14 hours light; 65% humidity) and watered twice daily. After 13 days for pre and post-emergence, the test is evaluated for the percentage damage caused to the plant. The biological activities are shown in the following table on a five point scale (5=80-100%; 4=60-79%; 3=40-59%; 2=20-39%; 1=0-19%).

[6] = system: Ipomoea hederacea (IPOHE); experiment: Pre-emergence glasshouse herbicide test, Ipomoea hederacea
Procedure: as §1

Setaria faberi (SETFA) [7] = experiment: Pre-emergence glasshouse herbicide test, Setaria faberi
Procedure: as §1

[8] = system: Ipomoea hederacea (IPOHE); experiment: Post-emergence glasshouse herbicide test, Ipomoea hederacea
Procedure: as §1

[9] = system: Amaranthus retoflexus (AMARE); experiment: Post-emergence glasshouse herbicide test, Amaranthus retoflexus
Procedure: as §1

[10] = system: Echinochloa crus-galli (ECHCG); experiment: Pre-emergence glasshouse herbicide test, Echinochloa crus-galli
Procedure: as §1

Solanum nigrum (SOLNI) [11] = experiment: Pre-emergence glasshouse herbicide test, Solanum nigrum
Procedure: as §2

Lolium perenne (LOLPE) [12] = experiment: Post-emergence glasshouse herbicide test, Lolium perenne
Procedure: as §1

SMILES | percentage damage caused to the plant, POST Application ECHCG [1] | percentage damage caused to the plant, POST Application SETFA (Setaria faberi (SETFA) [2]) | percentage damage caused to the plant, PRE Application LOLPE (Lolium perenne (LOLPE) [3]) | percentage damage caused to the plant, PRE Application AMARE [4] | percentage damage caused to the plant, POST Application SOLNI (Solanum nigrum (SOLNI) [5]) | percentage damage caused to the plant, PRE Application IPOHE [6] | percentage damage caused to the plant, PRE Application SETFA (Setaria faberi (SETFA) [7]) | percentage damage caused to the plant, POST Application IPOHE [8] | percentage damage caused to the plant, POST Application AMARE [9] | percentage damage caused to the plant, PRE Application ECHCG [10] | percentage damage caused to the plant, PRE Application SOLNI (Solanum nigrum (SOLNI) [11]) | percentage damage caused to the plant, POST Application LOLPE (Lolium perenne (LOLPE) [12])
Cn1nnnc1NC(=O)c1nn2cnn(-c3ccccc3)c2nc1=O [Compound 1.001] | 5 (5=80-100%) | 5 (5=80-100%) | 3 (3=40-59%) | 5 (5=80-100%) | 5 (5=80-100%) | 4 (4=60-79%) | 5 (5=80-100%) | 5 (5=80-100%) | 5 (5=80-100%) | 5 (5=80-100%) | 5 (5=80-100%) | 3 (3=40-59%)
Cn1nnnc1NC(=O)c1nn2cnn(-c3ccc(F)cc3)c2nc1=O [Compound 1.002] | 5 (5=80-100%) | 5 (5=80-100%) | 4 (4=60-79%) | 5 (5=80-100%) | 5 (5=80-100%) | 5 (5=80-100%) | 5 (5=80-100%) | 5 (5=80-100%) | 5 (5=80-100%) | 5 (5=80-100%) | 5 (5=80-100%) | 5 (5=80-100%)
COc1ccc(-n2ncn3nc(C(=O)Nc4nnnn4C)c(=O)nc23)cc1 [Compound 1.003] | 5 (5=80-100%) | 5 (5=80-100%) | 4 (4=60-79%) | 5 (5=80-100%) | 5 (5=80-100%) | 5 (5=80-100%) | 5 (5=80-100%) | 5 (5=80-100%) | 5 (5=80-100%) | 5 (5=80-100%) | 5 (5=80-100%) | 4 (4=60-79%)
CCCn1ncn2nc(C(=O)Nc3nnnn3C)c(=O)nc12 [Compound 1.007] | 5 (5=80-100%) | 5 (5=80-100%) | 4 (4=60-79%) | 5 (5=80-100%) | 5 (5=80-100%) | 4 (4=60-79%) | 5 (5=80-100%) | 5 (5=80-100%) | 5 (5=80-100%) | 5 (5=80-100%) | 5 (5=80-100%) | 3 (3=40-59%)
Cn1nnnc1NC(=O)c1nn2cnn(CCCC(F)(F)F)c2nc1=O [Compound 1.011] | 5 (5=80-100%) | 5 (5=80-100%) | 2 (2=20-39%) | 5 (5=80-100%) | 4 (4=60-79%) | 4 (4=60-79%) | 5 (5=80-100%) | 5 (5=80-100%) | 5 (5=80-100%) | 4 (4=60-79%) | 4 (4=60-79%) | 3 (3=40-59%)
CCn1nnnc1NC(=O)c1nn2cnn(-c3ccccc3)c2nc1=O [Compound 1.013] | 5 (5=80-100%) | 5 (5=80-100%) | 5 (5=80-100%) | 5 (5=80-100%) | 5 (5=80-100%) | 5 (5=80-100%) | 5 (5=80-100%) | 5 (5=80-100%) | 5 (5=80-100%) | 5 (5=80-100%) | 5 (5=80-100%) | 5 (5=80-100%)
CCCn1nnnc1NC(=O)c1nn2cnn(-c3ccccc3)c2nc1=O [Compound 1.014] | 5 (5=80-100%) | 5 (5=80-100%) | 5 (5=80-100%) | 5 (5=80-100%) | 5 (5=80-100%) | 5 (5=80-100%) | 5 (5=80-100%) | 5 (5=80-100%) | 5 (5=80-100%) | 5 (5=80-100%) | 5 (5=80-100%) | 5 (5=80-100%)
Cn1nnnc1NC(=O)c1nn2cnn(-c3cccc(Cl)c3)c2nc1=O [Compound 1.018] | 5 (5=80-100%) | 5 (5=80-100%) | 3 (3=40-59%) | 4 (4=60-79%) | 5 (5=80-100%) | 5 (5=80-100%) | 5 (5=80-100%) | 5 (5=80-100%) | 5 (5=80-100%) | 5 (5=80-100%) | 5 (5=80-100%) | 4 (4=60-79%)
Cn1nnnc1NC(=O)c1nn2cnn(-c3ccc(C(F)(F)F)cc3)c2nc1=O [Compound 1.022] | 5 (5=80-100%) | 5 (5=80-100%) | 4 (4=60-79%) | 5 (5=80-100%) | 5 (5=80-100%) | 4 (4=60-79%) | 5 (5=80-100%) | 4 (4=60-79%) | 5 (5=80-100%) | 5 (5=80-100%) | 5 (5=80-100%) | 3 (3=40-59%)
Cc1cccc(-n2ncn3nc(C(=O)Nc4nnnn4C)c(=O)nc23)c1 [Compound 1.026] | 5 (5=80-100%) | 5 (5=80-100%) | 5 (5=80-100%) | 5 (5=80-100%) | 5 (5=80-100%) | 4 (4=60-79%) | 5 (5=80-100%) | 5 (5=80-100%) | 5 (5=80-100%) | 5 (5=80-100%) | 5 (5=80-100%) | 4 (4=60-79%)
